Biological target: T1, human S1P1 receptor (Homo sapiens, UniProt P21453)
T1 construct: expressed in transfected cells; membranes used
Experiment: GTP γ35S binding assay for S1P1 activity
Assay type: biochemical
Conditions: membranes of cells stably expressing the S1P1 receptor, test compounds 0.08 to 5,000 nM, 30 min at 25° C.
Procedure: Compounds were synthesized and tested for S1P1 activity using the GTP γ^35S binding assay. These compounds may be assessed for their ability to activate or block activation of the human S1P1 receptor in cells stably expressing the S1P1 receptor.
GTP γ^35S binding was measured in the medium containing (mM) HEPES 25, pH 7.4, MgCl2 10, NaCl 100, dithitothreitol 0.5, digitonin 0.003%, 0.2 nM GTP γ^35S, and 5 μg membrane protein in a volume of 150 μl. Test compounds were included in the concentration range from 0.08 to 5,000 nM unless indicated otherwise. Membranes were incubated with 100 μM 5′-adenylylimmidodiphosphate for 30 min, and subsequently with 10 μM GDP for 10 min on ice. Drug solutions and membrane were mixed, and then reactions were initiated by adding GTP γ^35S and continued for 30 min at 25° C. Reaction mixtures were filtered over Whatman GF/B filters under vacuum, and washed three times with 3 mL of ice-cold buffer (HEPES 25, pH 7.4, MgCl2 10 and NaCl 100). Filters were dried and mixed with scintillant, and counted for ^35S activity using a β-counter. Agonist-induced GTP γ^35S binding was obtained by subtracting that in the absence of agonist. Binding data were analyzed using a non-linear regression method. In case of antagonist assay, the reaction mixture contained 10 nM S1P in the presence of test antagonist at concentrations ranging from 0.08 to 5000 nM. […] Activity potency: S1P1 receptor from GTP γ^35S: nM, (EC50),

T1 sequence (P21453 whole entry): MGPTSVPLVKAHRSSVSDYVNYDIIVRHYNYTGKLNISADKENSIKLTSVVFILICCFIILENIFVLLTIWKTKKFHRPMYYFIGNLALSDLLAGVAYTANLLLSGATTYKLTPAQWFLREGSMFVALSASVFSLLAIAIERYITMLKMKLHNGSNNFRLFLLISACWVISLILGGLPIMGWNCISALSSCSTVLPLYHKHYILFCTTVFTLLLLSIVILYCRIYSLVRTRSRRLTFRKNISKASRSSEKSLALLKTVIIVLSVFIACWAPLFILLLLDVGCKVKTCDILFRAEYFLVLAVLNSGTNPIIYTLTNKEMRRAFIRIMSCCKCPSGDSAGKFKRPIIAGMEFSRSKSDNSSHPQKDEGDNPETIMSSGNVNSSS

SMILES | EC50 [nM]
Cc1ccc(CC(CCCCSc2ccc(CNCCC(=O)O)cc2)c2cccc(Cl)c2)cc1C (centres unmarked) [Compound 1, 3-[(4-{[5-(3-chlorophenyl)-6-(3,4-dimethylphenyl)hexyl]thio}benzyl)amino]propanoic acid] | 159
Cc1ccc(CC(CCCC[S+]([O-])c2ccc(CNCCC(=O)O)cc2)c2cccc(Cl)c2)cc1C (centres unmarked) [Compound 2, 3-[(4-{[5-(3-chlorophenyl)-6-(3,4-dimethylphenyl)hexyl]sulfinyl}benzyl)amino]propanoic acid] | 631
Cc1ccc(CC(CCC[S+]([O-])c2ccc(CNCCC(=O)O)cc2)c2cccc(Cl)c2)cc1C (centres unmarked) [Compound 3, 3-[(4-{[4-(3-chlorophenyl)-5-(3,4-dimethylphenyl)pentyl]sulfinyl}benzyl)amino]propanoic acid] | 81.7
Cc1ccc(CC(CCCSc2ccc(CNCCCP(=O)(O)O)cc2)c2cc(F)cc(F)c2)cc1C (centres unmarked) [Compound 5, {3-[(4-{[4-(3,5-difluorophenyl)-5-(3,4-dimethylphenyl)pentyl]thio}benzyl)amino]propyl}phosphonic acid] | 2.65
Cc1ccc(CC(CCCSc2ccc(CNCCCP(=O)(O)O)cc2)c2cccc(Cl)c2)cc1C (centres unmarked) [Compound 6, {3-[(4-{[4-(3-chlorophenyl)-5-(3,4-dimethylphenyl)pentyl]thio}benzyl)amino]propyl}phosphonic acid] | 0.76
